Measured values as given in patent US20260097111A1, “ETHER LIPIDS FOR HYPERACTIVATION OF MAMMALIAN DENDRITIC CELLS” (priority 2022, published 2026).

Key:
human moDCs = assay: IL-6 secretion by human moDCs; format: cell-based; conditions: human moDCs, 41.25 μM lipid with R848, compared with R848 + vehicle; FIG. 16
murine FLT3L-DCs = assay: Murine bone marrow-derived FLT3L-DCs hyperactivation; format: cell-based, mice; conditions: R848 alone vs R848 in combination with DGP; FIG. 4C
Description: Murine bone marrow-derived FLT3L-DCs generation. Leg femur and tibia were removed from mice, cut with scissors, and flushed into sterile tubes. Bone marrow suspension was treated with ACK for 1 minute, then passed through a 40 um cell strainer. Cells were counted and resuspended in media consisting of complete IMDM containing 10% FBS, penicillin and streptomycin, and supplements of L-glutamine and sodium pyruvate (I10). […] For each experiment, 5 mice are used to collect BM and to generate DCs.
Lipid preparation. […] Lipid stocks were then further diluted in PBS to treat cells.
Murine bone marrow-derived FLT3L-DCs hyperactivation. BMDCs were harvested on day 8 post differentiation, washed with PBS, and re-plated in FLT3L-containing I10 at a concentration of 1×10^5 cells/mL. Cells were primed with or without 1 μg/mL R848 (final) then treated with or without a hyperactivating lipid (or vehicle control). Forty-eight hours post stimulation, supernatants were collected for cytokine measurement. Viability was measured using the CellTiter-Glo assay (Promega) which measures ATP content from cells. Fifty microliters of CellTiter-Glo reagent were added to 50 μL of cells. Luminescence was quantified on a SpectraMax m5e plate reader using an integration time of 500 milliseconds. Viability data were set relative to control conditions where cells were treated with R848. IL-1β and TNFα cytokine were measured using sandwich ELISAs (Invitrogen).

[1] = DGP DP sizing (Malvern Mastersizer 3000); format: physicochemical
Description: DGP (Compound 2) DP Synthesis. DGP DP was synthesized at a 3 mL scale using the following procedure. […] Sterile 10×PBS was added to the solution resulting in a 1×PBS concentration and 4 mg/mL DGP DP concentration. The mixture was then stirred at 1000 rpm for another 30 min at RT. For DGP DP prepared at 12 or 18 mL scale, the same procedure was followed, with volumes, vials, and stir bars scaled up to achieve the 4 mg/mL DGP DP preparation.
In cases where DGP DS was micronized prior to use, DGP DS underwent jet milling using an M-50 (Microtech Engineering Company) to reduce DS size to an average of 3-5 μm. […] For in vitro studies, DGP DP samples were sonicated at 2 W (low energy) or 4 W (medium energy) over two 30 s intervals. For in vivo studies, DGP DP samples were sonicated at 3 W over two 30 s intervals as a mid-energy assessment.
DGP (Compound 2) DP Sizing. DGP DP size was determined using a Malvern Mastersizer 3000 with a Hydro SV attachment. Briefly, DGP DP was diluted to 1 mg/mL in water prior to sizing. The 1 mg/mL DGP DP was added drop-wise to a measurement chamber filled with water under spinning until laser obscuration was 3-5%. Five measurements were taken per sample, with the average of the measurements reported.

[2] = tested on: myeloid cells in dLN and spleen; assay: Myeloid cells in dLN and spleen after SC injection (flow cytometry); format: in vivo, mice
Source text: dLN Dissection and Dissociation. […] The dLN were then transported on ice to Corner Therapeutics labs. The dLN was then processed using a Miltenyi spleen dissociation kit according to manufacturer's protocol. In brief, the dLN from each mouse was transferred into the gentleMACS C Tube containing the enzyme mix. The dLN were then dissociated using the gentleMACS Program 37C_m_SDK_1. Cell suspensions were then collected and filtered through a 30 μm Pre-Separation Filter. Cells were counted using the Moxi automated counter, then resuspended in 400 ul of FACS buffer for cell staining.
Spleen Dissection and Dissociation. […] The spleen samples were then transported on ice to Corner Therapeutics labs. Spleen samples were then processed a Miltenyi spleen dissociation kit according to manufacturer's protocol. In brief, each spleen was transferred into the gentleMACS C Tube containing the enzyme mix. The spleens were then dissociated using the gentleMACS program 37C_m_SDK_1. ACK lysis was performed for 2 min. Cell suspensions were then collected and filtered through a 30 μm Pre-Separation Filter. Cells were counted using the Moxi automated counter, then resuspended in 400 ul of FACS buffer for cell staining.
Flow Cytometry. Single cell suspension from the draining lymph or spleen were resuspended in 100 μL PBS containing Live/Dead Violet (1:1000) and incubated for 20 min at 4° C. Cells were then washed and resuspend in 100 μL FACS buffer containing Fc block (1:100) for 10 min. For myeloid cell staining, cells were then resuspended in 100 μL of antibodies detailed in Table 13-1 to identify monocytes as CD11b^+ Ly6C^+F4/80^neg MHC^neglive cells, moDCs as CD11b^+ Ly6C^+F4/80^neg MHC^+ live cells, macrophages as F4/80^+ MHC^+CD24^neg live cells, and DCs as CD11c^+MHC-II^+ F4/80^neg live cells. Counter Bright counting beads were added before the acquisition of samples.

[3] = 18 mL scale, no DS or DP modification

## CCCCCCCCCCCCCCCCCCCCCCOC[C@@H](O)COP(=O)(O)O [Compound 2, 1-docosyl-sn-glycerol-3-phosphate]
Human moDCs
  IL-6 secretion: IL-6 was secreted at similar levels
Murine FLT3L-DCs
  TNFα secretion: comparable
[1]; 3 mL scale
  Particulate Size D10: 6.83 μm
  Particulate Size D50: 13.8 μm
  Particulate Size D90: 27.5 μm
[1]; 12 mL scale
  Particulate Size D10: 12.0 μm
  Particulate Size D50: 25.0 μm
  Particulate Size D90: 51.7 μm
[1]; 12 or 18 mL scale
  average size: 26-27 μm
[1]; [3]
  Particulate Size D10: 12.9 μm
  Particulate Size D50: 26.7 μm
  Particulate Size D90: 56.0 μm
[2]; 4 hours post SC injection vs PBS, FIG. 50A
  absolute number of monocytes in the dLN: did not induce an increase in the absolute number of cells in the dLN at 4 hours
[2]; 4 hours post SC injection vs PBS, FIG. 50B
  absolute number of moDCs in the dLN: did not induce an increase in the absolute number of moDCs in the dLN
[2]; 4 hours post SC injection vs PBS, FIG. 52A-D
  CD69 MFI on myeloid cells in the dLN: did not induce CD69 upregulation on myeloid cells in the dLN
[2]; 4 hours post SC injection vs PBS, FIG. 53A-D
  CD69 MFI on myeloid cells in the spleen: did not induce the upregulation of CD69 on myeloid cells in the spleen
[2]; 4 hours post SC injection, FIG. 54A-B
  CCR7 MFI on DCs in the dLN and spleen: did not induce the upregulation of CCR7
[2]; 48 hours post SC injection vs PBS, FIG. 51A
  monocytes in the spleen: decreased the levels of monocytes in the spleen
[2]; 48 hours post SC injection, FIG. 50C-D
  abundance of macrophages and cDCs in the dLN: did not increase
